The values that follow come from ChEMBL document CHEMBL5344410, “Design, development and evaluation of a prodrug-type TrkA-selective inhibitor with antinociceptive effects in vivo” (Eur J Med Chem, 2023).

In data set [1] the target is NT-3 growth factor receptor (Homo sapiens, UniProt Q16288). Nature of the data set: Inhibition of TRKC (unknown origin) using Kinase substrate 22 pre-incubated with compound for 10 mins followed by substrate and ATP addition measured after 30 mins by mobility shift assay based caliper reader analysis.
Data set [2] deals with BDNF/NT-3 growth factors receptor (Homo sapiens, UniProt Q16620). Nature of the data set: Inhibition of TRKB (unknown origin) using Kinase substrate 22 pre-incubated with compound for 10 mins followed by substrate and ATP addition measured after 30 mins by mobility shift assay based caliper reader analysis.
In data set [3] the target is T1, High affinity nerve growth factor receptor (Homo sapiens, UniProt P04629). Put plainly: Inhibition of TRKA (unknown origin) using Kinase substrate 22 pre-incubated with compound for 10 mins followed by substrate and ATP addition measured after 30 mins by mobility shift assay based caliper reader analysis.
Target sequence in this assay (P04629 whole entry): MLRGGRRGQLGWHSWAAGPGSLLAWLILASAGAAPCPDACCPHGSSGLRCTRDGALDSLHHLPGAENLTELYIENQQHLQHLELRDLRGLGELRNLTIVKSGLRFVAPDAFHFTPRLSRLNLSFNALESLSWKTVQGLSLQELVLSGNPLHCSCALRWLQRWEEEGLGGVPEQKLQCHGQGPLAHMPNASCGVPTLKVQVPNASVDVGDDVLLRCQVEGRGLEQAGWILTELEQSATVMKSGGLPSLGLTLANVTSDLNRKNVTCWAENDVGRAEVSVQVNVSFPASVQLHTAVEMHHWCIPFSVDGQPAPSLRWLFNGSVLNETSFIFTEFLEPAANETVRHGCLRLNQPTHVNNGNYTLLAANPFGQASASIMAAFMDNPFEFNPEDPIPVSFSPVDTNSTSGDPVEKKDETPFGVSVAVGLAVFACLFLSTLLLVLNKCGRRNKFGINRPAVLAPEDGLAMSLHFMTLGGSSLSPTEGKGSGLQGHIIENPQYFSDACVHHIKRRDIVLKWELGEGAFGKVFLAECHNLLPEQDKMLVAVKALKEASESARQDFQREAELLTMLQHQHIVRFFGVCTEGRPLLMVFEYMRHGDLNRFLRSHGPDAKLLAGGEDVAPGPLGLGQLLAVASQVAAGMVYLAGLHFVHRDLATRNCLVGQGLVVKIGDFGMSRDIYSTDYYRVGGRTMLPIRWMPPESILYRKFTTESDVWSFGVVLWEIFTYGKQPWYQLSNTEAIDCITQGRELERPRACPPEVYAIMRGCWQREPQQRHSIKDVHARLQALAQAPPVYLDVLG
Data set [4] deals with Mus musculus. Nature of the data set: Antinociceptive activity in Kunming mouse assessed as reduction in nociceptive response at 40 mg/kg,IG administration and measured after 1 hr by hot plate test. In kind it is functional. More on the design: scale not given: the % may be the effect or the level left.
The test system of data set [5] is Mus musculus. Put plainly: Antinociceptive activity in ATP-induced Kunming mouse assessed as reduction in nociceptive response at 40 mg/kg,IG administration and measured after 1 hr by hot plate test. In kind it is functional, organism-based. In general terms: In hot-plate and tail-flick tests a longer latency is read as antinociception.
A short description of data set [6]: Drug metabolism in mouse hepatocyte assessed as N-(5-Hydroxy-2-phenylpyridin-3-y1)-3-(1-methyl-1H-pyrazol-3-y1)-4-(trifluoromethyl) benzamide metabolite formation at 2 uM incubated for 30 mins by LC-MS/MS analysis. It counts as ADME, cell-based. Particulars: hepatocytes, 0.5 h.
The nature of data set [7]: Drug metabolism in mouse hepatocyte assessed as 5-(3-(1-Methyl-1H-pyrazol-3-y1)-4-(trifluoromethyl)benzamido)-6-phenybridirt-3-yldihydrogen phosphate metabolite formation at 2 uM incubated for 30 mins by LC-MS/MS analysis. Particulars: hepatocytes, 0.5 h. In kind it is ADME, cell-based.
In data set [8] the test system is Mus musculus. Nature of the data set: Antinociceptive activity in Kunming mouse assessed as reduction in nociceptive response at 40 mg/kg,IG administration and measured for 1 to 6 hrs by hot plate test. It counts as functional, organism-based. Particulars: time 1-6 hrs.
Data set [9] can be described thus: Drug metabolism in mouse hepatocyte assessed as 5-(3-(1-Methy1-1H-pyrazol-3-y1)-4-(trifluoromethyl)benzamido)-6-phenylnicotinic acid metabolite formation at 2 uM incubated for 30 mins by LC-MS/MS analysis. It counts as ADME, cell-based. Particulars: hepatocytes, 0.5 h.
The subject of data set [10] is Mus musculus. Put plainly: Antinociceptive activity in Kunming mouse assessed as reduction in nociceptive response at 100 mg/kg,IG administration and measured for 1 to 6 hrs by hot plate test. Particulars: time 1-6 hrs. It counts as functional, organism-based.
Data set [11] concerns Mus musculus. Put plainly: Antinociceptive activity in Kunming mouse assessed as reduction in nociceptive response at 15 mg/kg,IG administration and measured after 1 hr by hot plate test. It counts as functional, organism-based.
The subject of data set [12] is Mus musculus. Put plainly: Antinociceptive activity in Kunming mouse assessed as reduction in nociceptive response at 40 mg/kg,IG administration and measured at 3 hrs by hot plate test. In kind it is functional, organism-based.
For data set [13], the system named is Mus musculus. Nature of the data set: Antinociceptive activity against formalin-induced pain in C57BL/6N mouse assessed as reduction in nociceptive response in phase I at IG administration for 1 hr followed by formalin challenge. In kind it is functional, organism-based.
Data set [14] deals with Mus musculus. Nature of the data set: Antinociceptive activity in Kunming mouse assessed as reduction in nociceptive response at 8 mg/kg,IG administrated with TRKA activator, Amitriptyline and measured at 3 hrs by hot plate test. It counts as functional, organism-based.
Data set [15] is described as follows: Drug metabolism in Kunming mouse blood assessed as 5-(3-(1-Methy1-1H-pyrazol3-yl)-4-(trifluoromethyl)benzamido)-6-phenylnicotinic acid metabolite formation at 15 mg/kg,IG administration measured after 1 hr by LC-MS/MS analysis. It counts as ADME, organism-based. Particulars: in vivo, po.
For data set [16], the system named is Mus musculus. Nature of the data set: Antinociceptive activity against formalin-induced pain in C57BL/6N mouse assessed as reduction in nociceptive response in phase II at IG administration for 1 hr followed by formalin challenge. In kind it is functional, organism-based.
In data set [17] the test system is Mus musculus. Put plainly: Antinociceptive activity in Kunming mouse assessed as reduction in nociceptive response by measuring effective dose at IG administration measured after 3 hr by hot plate test. Particulars: po. It counts as functional.
Data set [18] is described as follows: Drug uptake in Kunming mouse blood at 15 mg/kg,IG administration measured after 30 mins by LC-MS/MS analysis. In kind it is ADME, organism-based. Particulars: in vivo, po, 0.5 h.
Data set [19] deals with T1, High affinity nerve growth factor receptor. Put plainly: Inhibition of human 6-His tagged TRKA expressed in Sf9 insect cells incubated for 2 hrs in presence of ATP by LanthaScreen based FRET assay relative to control. Particulars: concentration not given here. A general note: TR-FRET usually uses a lanthanide donor and a delayed reading to cut background.
Target sequence in this assay (P04629 33-796 limits assumed): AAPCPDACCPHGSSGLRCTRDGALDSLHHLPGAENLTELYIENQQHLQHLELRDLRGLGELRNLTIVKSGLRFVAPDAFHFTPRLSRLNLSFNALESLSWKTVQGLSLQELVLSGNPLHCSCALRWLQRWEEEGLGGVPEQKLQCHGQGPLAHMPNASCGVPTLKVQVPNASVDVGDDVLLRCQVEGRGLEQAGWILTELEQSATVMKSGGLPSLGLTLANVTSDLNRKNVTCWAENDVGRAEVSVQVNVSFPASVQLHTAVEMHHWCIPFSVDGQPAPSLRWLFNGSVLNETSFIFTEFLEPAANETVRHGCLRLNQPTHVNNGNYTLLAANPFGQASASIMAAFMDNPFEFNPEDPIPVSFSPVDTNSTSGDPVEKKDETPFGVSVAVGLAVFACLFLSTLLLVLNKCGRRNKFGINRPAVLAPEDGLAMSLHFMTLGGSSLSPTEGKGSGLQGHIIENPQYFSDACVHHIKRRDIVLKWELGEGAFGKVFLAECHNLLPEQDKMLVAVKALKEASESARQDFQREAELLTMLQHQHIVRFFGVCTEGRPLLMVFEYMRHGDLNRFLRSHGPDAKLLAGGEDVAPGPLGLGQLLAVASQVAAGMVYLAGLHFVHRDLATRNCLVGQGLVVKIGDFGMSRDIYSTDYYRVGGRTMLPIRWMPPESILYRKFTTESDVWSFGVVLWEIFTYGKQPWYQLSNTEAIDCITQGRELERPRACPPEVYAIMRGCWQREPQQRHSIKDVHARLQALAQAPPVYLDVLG
The target is the same in data set [20]. Put plainly: Inhibition of human 6-His tagged TRKA expressed in Sf9 insect cells incubated for 2 hrs in presence of ATP by LanthaScreen based FRET assay.
Target sequence in this assay (P04629 whole entry): as the sequence (P04629 whole entry) above

Molecules are shown by their SMILES. Calls of active or inactive are those of the source. The rule behind the calls is not given here.

NT-3 growth factor receptor, sequence (Q16288 whole entry): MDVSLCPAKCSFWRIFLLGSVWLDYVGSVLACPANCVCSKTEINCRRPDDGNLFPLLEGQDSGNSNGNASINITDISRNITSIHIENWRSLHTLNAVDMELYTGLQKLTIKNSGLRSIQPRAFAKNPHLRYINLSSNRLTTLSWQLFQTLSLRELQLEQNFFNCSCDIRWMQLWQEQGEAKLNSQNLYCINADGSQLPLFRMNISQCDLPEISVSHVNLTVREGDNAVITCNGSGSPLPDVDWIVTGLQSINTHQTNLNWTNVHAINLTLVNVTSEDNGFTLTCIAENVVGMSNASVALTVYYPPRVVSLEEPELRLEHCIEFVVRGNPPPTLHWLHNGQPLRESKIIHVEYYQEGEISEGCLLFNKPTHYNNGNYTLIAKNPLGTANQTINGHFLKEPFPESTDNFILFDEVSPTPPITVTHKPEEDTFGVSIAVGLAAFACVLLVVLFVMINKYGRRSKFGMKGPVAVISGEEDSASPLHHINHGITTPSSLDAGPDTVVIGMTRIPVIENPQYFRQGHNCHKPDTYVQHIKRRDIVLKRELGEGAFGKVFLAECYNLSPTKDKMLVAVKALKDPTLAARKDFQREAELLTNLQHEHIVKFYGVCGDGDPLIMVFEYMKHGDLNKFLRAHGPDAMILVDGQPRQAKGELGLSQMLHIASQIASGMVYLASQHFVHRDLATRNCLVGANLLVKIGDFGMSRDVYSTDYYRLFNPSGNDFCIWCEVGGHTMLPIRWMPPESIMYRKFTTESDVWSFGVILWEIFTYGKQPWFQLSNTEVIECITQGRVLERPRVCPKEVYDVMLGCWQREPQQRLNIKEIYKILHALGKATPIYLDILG
BDNF/NT-3 growth factors receptor, sequence (Q16620 whole entry): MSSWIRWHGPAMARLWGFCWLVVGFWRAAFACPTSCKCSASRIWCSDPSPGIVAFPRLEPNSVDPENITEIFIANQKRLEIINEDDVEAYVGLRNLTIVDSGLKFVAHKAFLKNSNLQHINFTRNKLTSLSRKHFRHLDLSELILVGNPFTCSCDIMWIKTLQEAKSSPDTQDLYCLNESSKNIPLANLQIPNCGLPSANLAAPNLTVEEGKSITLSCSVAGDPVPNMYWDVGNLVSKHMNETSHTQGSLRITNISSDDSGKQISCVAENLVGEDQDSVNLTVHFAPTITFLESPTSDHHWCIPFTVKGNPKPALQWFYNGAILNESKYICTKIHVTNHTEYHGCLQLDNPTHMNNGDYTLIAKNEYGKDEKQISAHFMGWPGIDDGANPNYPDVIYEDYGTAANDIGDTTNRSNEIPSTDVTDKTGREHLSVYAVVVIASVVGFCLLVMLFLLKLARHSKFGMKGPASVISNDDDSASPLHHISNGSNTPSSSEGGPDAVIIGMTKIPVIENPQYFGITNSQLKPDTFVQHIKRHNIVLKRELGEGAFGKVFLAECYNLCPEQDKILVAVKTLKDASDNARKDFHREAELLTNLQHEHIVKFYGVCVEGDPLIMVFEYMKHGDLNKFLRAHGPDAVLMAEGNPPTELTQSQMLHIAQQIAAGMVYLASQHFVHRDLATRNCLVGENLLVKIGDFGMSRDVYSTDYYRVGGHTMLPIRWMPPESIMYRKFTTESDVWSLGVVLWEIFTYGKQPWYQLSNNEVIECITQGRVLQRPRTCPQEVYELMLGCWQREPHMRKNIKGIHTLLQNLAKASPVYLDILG

With `Cn1ccc(-c2cc(C(=O)Nc3cc(OP(=O)(O)O)cnc3-c3ccccc3)ccc2C(F)(F)F)n1`, the IC50 (commonly the concentration needed to halve the response being measured) is over 500000 nM in data set [1], over 500000 nM in data set [2] and 798 nM in data set [3].

As for `Cn1ccc(-c2cc(C(=O)Nc3cc(C(=O)O)cnc3-c3ccccc3)ccc2C(F)(F)F)n1`, the 50% inhibitory concentration (IC50) in [1] was 20200 nM; in data set [2] it was 190000 nM; in data set [3], 22.4 nM.

On to `CC(=O)NCc1ncc(NC(=O)c2ccc(C(F)(F)F)c(-c3cn(C)cn3)c2)c(-c2ccccc2)n1`, for which the results for the IC50 in data set [1] and in [3] were 760 nM and 4 nM, respectively.

As for `COC(=O)[C@H](C)NP(=O)(Oc1ccccc1)Oc1cnc(-c2ccccc2)c(NC(=O)c2ccc(C(F)(F)F)c(-c3ccn(C)n3)c2)c1` (some centres undefined), the Activity in [4] is recorded as 20%. Besides, the result in [5] was inactive. Besides, the Drug metabolism entry is reported as “Metabolite_Detected” in data set [6], “Metabolite_Notdetected” in data set [7] and “Metabolite_Detected” in data set [9]. The result in data set [8] was Active.

Turning to `CC(C)Cc1ccc(C(C)C(=O)O)cc1` (centres undefined), the result in data set [10] was Active.

As to `CCOc1nn(-c2ccccc2)c(NC(=O)N[C@H]2CN(CCOC)C[C@@H]2c2ccc(F)c(F)c2)c1C`, the figures for the IC50 in data set [1], in data set [2] and in data set [3] were 2480 nM, 1300 nM and 2.7 nM, respectively.

Regarding `CC(=O)OCOC(=O)c1cnc(-c2ccccc2)c(NC(=O)c2ccc(C(F)(F)F)c(-c3ccn(C)n3)c2)c1`, the Activity in data set [4] was 20%; in data set [13], “Dose-Dependent Effect”; in data set [16] it was “Dose-Dependent Effect”. For the same compound, the outcome in data set [11] and in data set [12] was Active. The result in [14] and in data set [5] was inactive. Further, the Drug metabolism result in [15] is given as “Metabolite_Detected”; in data set [6], “Metabolite_Detected”; in data set [7], “Metabolite_Notdetected”; in [9], “Metabolite_Detected”. In addition, in data set [17], the ED50 (usually the midpoint of the dose-response relation) came out at 7.84 mg/kg. Also, the Drug uptake result in [18] was “Not Active”.

Take `Cc1ncc(-c2ccccc2)c(NC(=O)NC2c3ccccc3-c3ccccc32)n1`: the inhibition – broadly, the share of the control response that was lost under treatment – in data set [19] was over 70%. The IC50 is 25000 nM in data set [1], over 81000 nM in [2], 99 nM in data set [3] and 99 nM in data set [20].

On to `Cn1ccc(-c2cc(C(=O)Nc3cc(O)cnc3-c3ccccc3)ccc2C(F)(F)F)n1`, for which the IC50 in data set [1] is over 500000 nM; in data set [2], over 500000 nM; in data set [3], 70.4 nM.
